Laboratory results from patent US9840494B2, “Quinazoline derivative” (Tianjin Hemay Oncology Pharmaceutical Co., Ltd., priority 2013, dated 2017).
Marks after values point to notes of the source that are not given here.

Assays:
[1] = system: FaDu human head and neck cancer xenograft; test: FaDu human head and neck cancer xenograft model; assay type: in vivo, nude mice; details: for Tumor Weight (x ± S.D.) / Tumor Inhibitor Rate / Relative Tumor Volume (x ± S.D.) / T/C / Tumor Volume (x ± S.D.): FaDu xenograft; for Tumor Inhibitor Rate: by tumor weight; for Relative Tumor Volume (x ± S.D.) / T/C / Tumor Volume (x ± S.D.): end of the assay
Description: Tumor cells were cultured in an incubator at 37° C. with 5% CO2 using MEM medium containing 10% inactivated fetal calf serum, 100 U/ml penicillin and 100 μg/ml streptomycin. The tumor cells in logarithmic growth phase were collected, adjusted to an appropriate density and injected subcutaneously into nude mice (0.2 ml per mouse). An xenograft model was established after tumor was formed in the nude mice and passaged in vivo for more than three generations.
(§1) The above-mentioned tumor-bearing mice were sacrificed by cervical dislocation. The tumor was taken out and cut into small tumor pieces (about 2 mm×2 mm×2 mm) under sterile conditions. The small tumor pieces were inoculated subcutaneously into nude mice on the right shoulder blade with a trocar. […] The animals in each group were subjected to intragastric administration daily for 14 consecutive days. The day of grouping is assigned as day 0.
(§2) Tumor volume is calculated as: volume=0.5×long diameter×short diameter^2. The relative tumor volume (RTV) was calculated based on the measurements as: RTV=Vt/V0, wherein V0 is the tumor volume measured when the animals were grouped to be administrated (i.e., d0), and Vt is the tumor volume when each measurement was taken. Relative tumor proliferation rate T/C was calculated based on relative tumor volume, in which T is the mean value of the relative tumor volume of the treatment group, and C is the mean value of the relative tumor volume of the solvent control group. T/C was calculated as follows: T/C=TRTV/CRTV×100% (TRTV: RTV of the treatment group; CRTV: RTV of the solvent control group) Inhibition rate (%)=(mean tumor weight of the solvent control group−mean tumor weight of the treatment group)/mean tumor weight of the solvent control group×100%. Percentage of body weight change=Wn/W0×100% (Wn: mean body weight of experimental animals in each group at day n, W0: mean body weight of experimental animals in each group at day 0).
(§3) One-Way ANOVA test was conducted in SPSS13.0, performing statistical analysis between groups.

[2] = system: HCC827 human non-small cell lung cancer xenograft; test: HCC827 human non-small cell lung cancer xenograft model; assay type: in vivo, nude mice; details: for Tumor Weight (x ± S.D.) / Tumor Inhibitor Rate / Relative Tumor Volume (x ± S.D.) / T/C / Tumor Volume (x ± S.D.): HCC827 xenograft; for Tumor Inhibitor Rate: by tumor weight; for Relative Tumor Volume (x ± S.D.) / T/C / Tumor Volume (x ± S.D.): end of the assay
Description: Tumor cells were cultured in an incubator at 37° C. with 5% CO2 using MEM medium containing 10% inactivated fetal calf serum, 100 U/ml penicillin and 100 μg/ml streptomycin. The tumor cells in logarithmic growth phase were collected, adjusted to an appropriate density and injected subcutaneously into nude mice (0.2 ml per mouse). An xenograft model was established after a tumor was formed in the nude mice and passaged in vivo for more than three generations.
as §1
as §2, with “group x 100%.” for “group×100%.”
as §3

[3] = FaDu xenograft nude mice, 20, 40 and 80 mg/kg intragastric daily for 14 days
[4] = 20 mg/kg intragastric daily for 14 days
[5] = 40 mg/kg intragastric daily for 14 days
[6] = 80 mg/kg intragastric daily for 14 days
[7] = HCC827 xenograft nude mice, 20, 40 and 80 mg/kg intragastric daily for 14 days

Structure (SMILES): COCCOc1cc2ncnc(Nc3ccc(F)c(Cl)c3)c2cc1NC(=O)C=C1CCN(CCOC)CC1.CS(=O)(=O)O [Compound 3, N-[4-(3-chloro-4-fluorophenylamino)-7-(2-methoxyethoxy)quinazolin-6-yl]-2-[1-(2-methoxyethyl)piperidin-4-ylidene]acetamide dimethylsulfonate]
- Body weights of the experimental animals [1, 3]: not significantly reduced
- abnormality in the experimental animals [1, 3]: no significant abnormality was observed
- Tumor Weight (x ± S.D.) [1, 4]: 0.684 ± 0.192 g
- Tumor Inhibitor Rate [1, 4]: 37.5%
- Relative Tumor Volume (x ± S.D.) [1, 4]: 6.1 ± 1.3
- T/C [1, 4]: 61.4%
- Tumor Volume (x ± S.D.) [1, 4]: 703.3 ± 144.2** mm^3
- Tumor Weight (x ± S.D.) [1, 5]: 0.522 ± 0.427 g
- Tumor Inhibitor Rate [1, 5]: 52.4%
- Relative Tumor Volume (x ± S.D.) [1, 5]: 5.5 ± 1.9
- T/C [1, 5]: 54.7%
- Tumor Volume (x ± S.D.) [1, 5]: 602.9 ± 204.4*** mm^3
- Tumor Weight (x ± S.D.) [1, 6]: 0.260 ± 0.128 g
- Tumor Inhibitor Rate [1, 6]: 76.2%
- Relative Tumor Volume (x ± S.D.) [1, 6]: 3.2 ± 1.6
- T/C [1, 6]: 31.6%
- Tumor Volume (x ± S.D.) [1, 6]: 352.3 ± 157.0*** mm^3
- Body weights of the experimental animals [2, 7]: not significantly reduced
- abnormality in the experimental animals [2, 7]: no significant abnormality was observed
- Tumor Weight (x ± S.D.) [2, 4]: 0.045 ± 0.074 g
- Tumor Inhibitor Rate [2, 4]: 91.7%
- Relative Tumor Volume (x ± S.D.) [2, 4]: 0.36 ± 0.45
- T/C [2, 4]: 5.0%
- Tumor Volume (x ± S.D.) [2, 4]: 57.3 ± 77.6*** mm^3
- Tumor Weight (x ± S.D.) [2, 5]: 0.026 ± 0.026 g
- Tumor Inhibitor Rate [2, 5]: 95.2%
- Relative Tumor Volume (x ± S.D.) [2, 5]: 0.13 ± 0.10
- T/C [2, 5]: 1.8%
- Tumor Volume (x ± S.D.) [2, 5]: 18.4 ± 11.6*** mm^3
- Tumor Weight (x ± S.D.) [2, 6]: 0.014 ± 0.013 g
- Tumor Inhibitor Rate [2, 6]: 97.4%
- Relative Tumor Volume (x ± S.D.) [2, 6]: 0.13 ± 0.04
- T/C [2, 6]: 1.8%
- Tumor Volume (x ± S.D.) [2, 6]: 20.9 ± 8.6*** mm^3
